Source: patent US20250041624A1, “METHOD FOR ENHANCING ACTIVITY OF PHOTOSENSITIZER BY MAGNETIC FIELD” (PEKING UNIVERSITY, priority 2021, published 2025)

Key:
[1] = tested on: HeLa cells; assay: H2DCFDA fluorescence imaging of intracellular oxidation in HeLa cells; type: cell-based; details: RB 30 μmol/L, FIG. 11
Procedure: (1) HeLa cells are seeded on sterile glass coverslips and placed in DMEM (comprising FBS) plates for 12 h. Then appropriate amount of 30 μmol/L RB or 0.01 mol/L PBS buffer is added, respectively. After 24 h in dark, H2DCFDA (dichlorofluorescein diacetate, ≥97%, purchased from Sigma-Aldrich) is added to give final concentration of 10 μmol/L and cells are incubated for another 30 min, and then are washed 3 times with PBS buffer.
Said HeLa cells are placed under the magnetic field conditions of 0 mT, 250 mT, 800 mT, respectively, without irradiation or with 10 min light (561 nm, 5 mW·cm^−2). Fluorescence images are obtained using Nikon A1R-si laser scanning confocal microscopy (488 nm excitation, 515±15 nm received fluorescence), where H2DCFDA is the indicator that reacts with cellular singlet oxygen ^1O2 to increase fluorescence emission intensity (excitation wavelength is 504 nm, and emission wavelength is 529 nm).
The change rate of fluorescence intensity in Hela cells added with RB under the conditions of light and magnetic field at 0, 250 or 800 mT is shown in FIG. 12. The change rate of fluorescence intensity is (IB−I0)/I0×100%, IB is the fluorescence intensity at magnetic field strength of B, and I0 is the fluorescence intensity without magnetic field. In FIG. 12, ** is the statistical probability p<0.01; *** is p<0.005, and p<0.05 is considered significant.

[2] = Reaction rate of fluorescent probe SOSG with 1O2 generated by photosensitizer under light and magnetic field; type: physicochemical; details: for first derivative of the I525 nm−t curve (normalized): RB and SOSG 10 μmol/L in water, 561 nm LED 5 mW·cm−2, time 0
Procedure: (1) The photosensitizer Rose Bengal (RB) (the purity >98%, available from Saen Chemical Technologies (Shanghai) Ltd. Co., branded as Energy Chemical) and singlet oxygen fluorescent probe (SOSG) are dissolved in water (SOSG available from ThermoFisher Scientific (China) Co., Ltd.). In the resulting solution, the photosensitizer and SOSG are both at a concentration of 10 μmol/L. In a magnetic field with certain strength, the solutions are exposed to a 561 nm LED lamp (light emitting diode) at a power of 5 mW·cm^−2 and tested for fluorescence spectra at 0, 15, 30, 45, 60, 90, 120 and 180 seconds of light exposure, respectively, resulting in emission intensity ([…]) versus time (t) curves. The above fluorescence spectroscopy test is performed at a magnetic field strength of 0, 10, 35, 85, 180, 300 mT, respectively (external magnetic field provided by a neodymium iron boron permanent magnet).
(2) The photosensitizer chlorin e6 (Ce6, Chlorin e6) (available from Saen Chemical Technologies (Shanghai) Ltd. Co., branded as Energy Chemical) and singlet oxygen fluorescent probe (SOSG) are dissolved in water, both with a concentration of 10 μmol/L in the resulting solutions. In a magnetic field with certain strength, the solutions are exposed to a 640 nm LED lamp (light emitting diode) at a power of 5 mW·cm^−2 and tested for fluorescence spectra at 0, 15, 30, 45, 60, 90, 120 and 180 seconds of light exposure, respectively, resulting in emission intensity ([…]) versus time (t) curves. The above fluorescence spectra are tested at a magnetic field strength of 0, 10, 30, 70, 150, 250 mT, respectively.
The external magnetic field is supplied by Neodymium Iron Boron Permanent Magnet. Fluorescence spectra are tested using Edinburg FLS980 Steady State Transient Fluorescence Spectrometer with a detector of PMT R928 and a light source of 450 W ozone-free xenon lamp with excitation wavelength of λex=488 nm.
Under irradiation conditions, photosensitizer is excited to produce singlet oxygen ^1O2, and fluorescent probe SOSG reacts with ^1O2 to give endoperoxide with green fluorescence emission characteristic, with emission wavelength of 525 nm under excitation wavelength conditions of 488 nm. The reaction has a reaction rate of r.
In the present invention, through application of light and a magnetic field, the magnetic field effects (MFEs) is quantified by mfeR, the change rate of the reaction rate r, mfeR=(rB−r0)/r0×100%, where r0 is the reaction rate at a magnetic field strength of 0 mT and rB is the reaction rate at a magnetic field strength of B mT. Where the reaction rate (r) is proportional to the slope of the tangent of a curve (first derivative of the curve) of the emission intensity (I525 nm) versus time (t). Under magnetic field strengths of 0, 10, 35, 85, 180, 300 mT and from the time of starting to illuminate and place in magnetic field (the time recorded as 0), the first derivative of the I525 nm−t curve is 1, 1.05, 1.09, 0.99, 1.12, 1.14 (normalized).

[3] = Body weight, abnormal signs and H&E staining of major organs of treated mice; type: in vivo; details: all groups
Source text: (§1) Test (two): After sacrificing the mice on day 14, tumor tissue and major organs (heart, liver, spleen, lungs and kidney) are collected and detected histologically. Tumor tissue and major organs are fixed by 10% neutral formalin solution. Hematoxylin-Eosin (H&E) staining is used to analyze toxicity of light and magnetic field effects on tumor and normal organs. Terminal deoxynucleotidyl transferase-mediated dUTP nick end labeling (TUNEL) staining is used to detect apoptosis in tumor tissue, and expression of cleaved Caspase-3, Bax and Bcl-2 in tumor tissue is simultaneously detected.

[4] = tested on: HeLa xenograft tumor tissue; assay: IHC staining (Bax, Bcl-2, cleaved Caspase-3) of xenograft tumor tissue sections for apoptosis; type: in vivo, BALB/c nude mice; details: RB added, day 14, FIG. 19
Source text: as §1

For `O=C1OC2(c3cc(I)c(O)c(I)c3Oc3c2cc(I)c(O)c3I)c2c(Cl)c(Cl)c(Cl)c(Cl)c21` [RB, Rose Bengal], the “fluorescence intensity of HeLa cells (H2DCFDA)” value ([1]; absence of magnetic field, vs PBS) was “stronger than that with PBS”, the “fluorescence intensity of HeLa cells (H2DCFDA)” value ([1]; irradiation 561 nm 10 min and 250 mT) was “stronger than those under the absence of magnetic field and the magnetic field of 800 mT” and the “first derivative of the I525 nm−t curve (normalized)” value (shortened to “first derivative … (normalized)”) ([2]; MF 0 mT) was 1. The “first derivative … (normalized)” value ([2]; MF 10 mT) was 1.05, the “first derivative … (normalized)” value ([2]; MF 35 mT) was 1.09 and the “first derivative … (normalized)” value ([2]; MF 85 mT) was 0.99. For the same compound, the “first derivative … (normalized)” value ([2]; MF 180 mT) was 1.12, the “first derivative … (normalized)” value ([2]; MF 300 mT) was 1.14 and the “mfer (change rate of reaction rate r of SOSG with 1O2)” value ([2]; peak, MF 250 mT vs 0 mT, FIG. 1) was 25%. For the same compound, the “systemic toxicity (H&E staining of major organs)” value ([3]; heart, liver, spleen, lungs and kidney, day 14, FIG. 20) was “do not result in systemic toxicity”, the “body weight loss or other abnormal signs” value ([3]; mice, 14 days) was “No body weight loss or other abnormal signs” and the “apoptosis in tumor sections (IHC)” value ([4]; magnetic field of 250 mT) was “apoptosis is more pronounced”. For the same compound, the “apoptosis in tumor sections (IHC)” value ([4]; magnetic field of 800 mT) was “apoptosis is not significant”.
